US4849207A, “Porphyrin derivatives” (Nihon Medi-Physics Co., Ltd., priority 1985, dated 1989)

Tests used:
[1] = test system: cancer cells of the pancreas; experiment: Laser irradiation to an extracted organ (excited fluorescent spectrum); format: in vivo, golden hamsters; details: golden hamster, 5 mg i.v., after 24 hours
Method: Laser irradiation to an extracted organ (excited fluorescent spectrum):
To each of golden hamsters (five animals being grouped) transplaned with nitrosoamine-induced cancer cells of the pancreas, DTPA-10EG PPB-Me (5 mg) diluted with 0.1M citrate buffer (1 ml) was administered intravenously 14 to 21 days after the transplantation, and cancer cells and other organs were extracted. To each of the organs as extracted, N2 -pulsed laser (N2 337 nm, 2 ns 400-1000 nm) was irradiated, and excited fluorescent spectrum was measured after 24 hours. Taking the peak wavelength of NADH at 470 nm as the standard (i.e. 1), the wavelength at 600 to 900 nm was calculated. The results are shown in Table 1, from which it is understood that a porphyrin-related substance has a remarkably selective affinity to cancer cells.

[2] = test system: inflammation (croton oil induced); experiment: Distribution in inflammation-induced rats, inflammation to tissue; format: in vivo, SD rats; details: SD rat, 72 hour post-injection; mean and s.d. for 3 animals
Method: SD rats of about 200 grams in bodyweight received croton oil (0.1 ml) at the right hind leg subcutaneously to induce inflammation. […] The radioactivity level ratio between the inflamation and each tissue was determined.

tumor = details: hamster, in vivo, 4320 min
Method: (§1) Scintigraphy was obtained 72 and 96 hours after the administration by the use of a gamma-camera equipped with a medium energy high resolution type collimator.

[3] = test system: inflammation (turpentine oil induced); details: hamster, in vivo, 4320 min
Method: as §1

With “2,4-Bis[1-(In-diethylenetriamine-tetraacetic acid-acetyloxyethane)oxyethyl] Ga-deuteroporphyrin [In--bisDTPA--EG Ga--DP]” the “excited fluorescence at 600 to 900 nm relative to NADH peak at 470 nm (=1): Cancer” value [1] was 0.40, the “excited fluorescence at 600 to 900 nm relative to NADH peak at 470 nm (=1): Kidney” value [1] was 0.10 and the “excited fluorescence at 600 to 900 nm relative to NADH peak at 470 nm (=1): Liver” value [1] was 0.18. For the same compound, the “excited fluorescence at 600 to 900 nm relative to NADH peak at 470 nm (=1): Serum” value [1] was 0.03.
For “2,4-Bis[1-(In-diethylenetriamine-tetraacetic acid-acetyloxyethane)oxyethyl] In-deuteroporphyrin [In--bisDTPA--EG In--DP]”, the “excited fluorescence at 600 to 900 nm relative to NADH peak at 470 nm (=1): Cancer” value [1] was 0.00, the “excited fluorescence at 600 to 900 nm relative to NADH peak at 470 nm (=1): Kidney” value [1] was 0.05 and the “excited fluorescence at 600 to 900 nm relative to NADH peak at 470 nm (=1): Liver” value [1] was 0.25. The “excited fluorescence at 600 to 900 nm relative to NADH peak at 470 nm (=1): Lung” value [1] was 0.05 and the “excited fluorescence at 600 to 900 nm relative to NADH peak at 470 nm (=1): Serum” value [1] was 0.05.
For “2-[1-(In-Diethylenetriamine-tetraacetic acid-acetyloxyethane)oxyethyl]-4-[1-(2-hydroxyethyl)oxyethyl] Ga-deuteroporphyrin [In--monoDTPA--EG Ga--DP]”, the “excited fluorescence at 600 to 900 nm relative to NADH peak at 470 nm (=1): Cancer” value [1] was 0.50, the “excited fluorescence at 600 to 900 nm relative to NADH peak at 470 nm (=1): Kidney” value [1] was 0.05 and the “excited fluorescence at 600 to 900 nm relative to NADH peak at 470 nm (=1): Liver” value [1] was 0.03. For the same compound, the “excited fluorescence at 600 to 900 nm relative to NADH peak at 470 nm (=1): Lung” value [1] was 0.14 and the “excited fluorescence at 600 to 900 nm relative to NADH peak at 470 nm (=1): Serum” value [1] was 0.02.
For “2-[1-(In-Diethylenetriamine-tetraacetic acid-acetyloxyethane)oxyethyl]-4-[1-(2-hydroxyethyl)oxyethyl] In-deuteroporphyrin [In--monoDTPA--EG In--DP]”, the “excited fluorescence at 600 to 900 nm relative to NADH peak at 470 nm (=1): Cancer” value [1] was 0.30, the “excited fluorescence at 600 to 900 nm relative to NADH peak at 470 nm (=1): Kidney” value [1] was 0.00 and the “excited fluorescence at 600 to 900 nm relative to NADH peak at 470 nm (=1): Liver” value [1] was 0.07. For the same compound, the “excited fluorescence at 600 to 900 nm relative to NADH peak at 470 nm (=1): Lung” value [1] was 0.09 and the “excited fluorescence at 600 to 900 nm relative to NADH peak at 470 nm (=1): Serum” value [1] was 0.24.
In the case of “2-[1-(In-Diethylenetriamine-tetraacetic acid-acetyloxyethane)oxyethyl]-4-[1-(2-hydroxyethyl)oxyethyl] deuteroporphyrin dimethyl ester [In--DTPA--EG DP--Me]”, the “excited fluorescence at 600 to 900 nm relative to NADH peak at 470 nm (=1): Cancer” value [1] is reported as 0.83, the “excited fluorescence at 600 to 900 nm relative to NADH peak at 470 nm (=1): Kidney” value [1] is reported as 0.15 and the “excited fluorescence at 600 to 900 nm relative to NADH peak at 470 nm (=1): Liver” value [1] is reported as 0.36. The “excited fluorescence at 600 to 900 nm relative to NADH peak at 470 nm (=1): Lung” value [1] was 0.09 and the “excited fluorescence at 600 to 900 nm relative to NADH peak at 470 nm (=1): Serum” value [1] was 0.71.
For C=Cc1c(C)c2cc3nc(c4c5[nH]c(cc6nc(cc1[nH]2)C(C)=C6CC)c(C)c5C(=O)C4C(=O)OC)C(CCC(=O)OCCOC(=O)CN(CCN(CCN(CC(=O)O)CC(=O)O)CC(=O)O)CC(=O)O)C3C (stereo not shown) [DTPA--7EG PPB, Ethylene glycol mono-diethylenetriaminetetraacetic acid-acetate mono-7c-pheophorbate], the “excited fluorescence at 600 to 900 nm relative to NADH peak at 470 nm (=1): Cancer” value [1] was 0.53, the “excited fluorescence at 600 to 900 nm relative to NADH peak at 470 nm (=1): Kidney” value [1] was 0.32 and the “excited fluorescence at 600 to 900 nm relative to NADH peak at 470 nm (=1): Liver” value [1] was 0.33. For the same compound, the “excited fluorescence at 600 to 900 nm relative to NADH peak at 470 nm (=1): Lung” value [1] was 0.30 and the “excited fluorescence at 600 to 900 nm relative to NADH peak at 470 nm (=1): Serum” value [1] was 0.31.
In the case of C=Cc1c(C)c2cc3nc(c4c5[nH]c(cc6nc(cc1[nH]2)C(C)=C6CC)c(C)c5C(=O)C4)C(CCC(=O)OCCOC(=O)CN(CCN(CCN(CC(=O)O)CC(=O)O)CC(=O)O)CC(=O)O)C3C (stereo not shown) [DTPA--7EG pyroPPB, Ethylene glycol mono-diethylenetriaminetetraacetic acid-acetate mono-7c-pyropheophorbate], the “excited fluorescence at 600 to 900 nm relative to NADH peak at 470 nm (=1): Cancer” value [1] is reported as 2.20, the “excited fluorescence at 600 to 900 nm relative to NADH peak at 470 nm (=1): Kidney” value [1] is reported as 0.25 and the “excited fluorescence at 600 to 900 nm relative to NADH peak at 470 nm (=1): Liver” value [1] is reported as 0.87. The “excited fluorescence at 600 to 900 nm relative to NADH peak at 470 nm (=1): Lung” value [1] was 1.23 and the “excited fluorescence at 600 to 900 nm relative to NADH peak at 470 nm (=1): Serum” value [1] was 0.39.
For C=Cc1c(C)c2cc3nc(c4c5[nH]c(cc6nc(cc1[nH]2)C(C)=C6CC)c(C)c5C(=O)C4C(=O)OCCOC(=O)CN(CCN(CCN(CC(=O)O)CC(=O)O)CC(=O)O)CC(=O)O)C(CCC(=O)O)C3C (stereo not shown) [DTPA--10EG PPB, Ethylene glycol mono-diethylenetriamine-tetraacetic acid-acetate mono-10b-pheophorbate], the “excited fluorescence at 600 to 900 nm relative to NADH peak at 470 nm (=1): Cancer” value [1] was 1.20, the “excited fluorescence at 600 to 900 nm relative to NADH peak at 470 nm (=1): Kidney” value [1] was 0.43 and the “excited fluorescence at 600 to 900 nm relative to NADH peak at 470 nm (=1): Liver” value [1] was 0.77. For the same compound, the “excited fluorescence at 600 to 900 nm relative to NADH peak at 470 nm (=1): Lung” value [1] was 0.45 and the “excited fluorescence at 600 to 900 nm relative to NADH peak at 470 nm (=1): Serum” value [1] was 0.52.
With C=Cc1c(C)c2cc3nc(c4c5[nH]c(cc6nc(cc1[nH]2)C(C)=C6CC)c(C)c5C(=O)C4C(=O)OCCOC(=O)CN(CCN(CCN(CC(=O)O)CC(=O)O)CC(=O)O)CC(=O)O)C(CCC(=O)OC)C3C (stereo not shown) [DTPA--10EG PPB--Me, Ethylene glycol monodiethylenetriaminetetraacetic acid-acetate mono-10b-methylpheophorbate] the “excited fluorescence at 600 to 900 nm relative to NADH peak at 470 nm (=1): Cancer” value [1] was 2.73, the “excited fluorescence at 600 to 900 nm relative to NADH peak at 470 nm (=1): Kidney” value [1] was 0.37 and the “excited fluorescence at 600 to 900 nm relative to NADH peak at 470 nm (=1): Liver” value [1] was 0.69. The “excited fluorescence at 600 to 900 nm relative to NADH peak at 470 nm (=1): Lung” value [1] was 0.47 and the “excited fluorescence at 600 to 900 nm relative to NADH peak at 470 nm (=1): Serum” value [1] was 0.53.
For O=C([O-])CC(O)(CC(=O)[O-])C(=O)[O-].[67Ga+3] [Gallium (^67 Ga) citrate, gallium (^67 Ga) citrate], the “Inflammation to tissue concentration ratio: Blood” value [2] was 21.61 ± 6.47, the “Inflammation to tissue concentration ratio: Heart” value [2] was 7.49 ± 3.37 and the “Inflammation to tissue concentration ratio: Kidney” value [2] was 5.04 ± 6.35. For the same compound, the “Inflammation to tissue concentration ratio: Liver” value [2] was 0.69 ± 0.17, the “Inflammation to tissue concentration ratio: Lung” value [2] was 5.41 ± 0.71 and the “Inflammation to tissue concentration ratio: Muscle” value [2] was 12.81 ± 4.61. The “Inflammation to tissue concentration ratio: Spleen” value [2] was 0.64 ± 0.11, the “Tumor to tissue concentration ratio: Blood” value (tumor) was 9.89 and the “Tumor to tissue concentration ratio: Heart” value (tumor) was 1.73. The “Tumor to tissue concentration ratio: Kidney” value (tumor) was 0.20, the “Tumor to tissue concentration ratio: Liver” value (tumor) was 0.18 and the “Tumor to tissue concentration ratio: Lung” value (tumor) was 1.26. For the same compound, the “Tumor to tissue concentration ratio: Muscle” value (tumor) was 14.20, the “Tumor to tissue concentration ratio: Spleen” value (tumor) was 0.39 and the “Inflammation to tissue concentration ratio: Blood” value [3] was 17.55. For the same compound, the “Inflammation to tissue concentration ratio: Heart” value [3] was 3.10, the “Inflammation to tissue concentration ratio: Kidney” value [3] was 0.36 and the “Inflammation to tissue concentration ratio: Liver” value [3] was 0.33. For the same compound, the “Inflammation to tissue concentration ratio: Lung” value [3] was 2.23, the “Inflammation to tissue concentration ratio: Muscle” value [3] was 25.15 and the “Inflammation to tissue concentration ratio: Spleen” value [3] was 0.68.
CCC1=C(C)c2cc3[nH]c(cc4nc(c5c6[nH]c(cc1n2)c(C)c6C(=O)C5C(=O)OCCOC(=O)C1C(=O)c2c(C)c5cc6nc(cc7[nH]c(cc8nc(c1c2[nH]5)C(CCC(=O)O)C8C)c(C)c7C(C)I)C(C)=C6CC)C(CCC(=O)O)C4C)c(C)c3C(C)I (stereo not shown) [I2 PPB Dimer, Bis[2-desethenyl-2-(1-iodoethyl)pheophobide]ethylene glycol diester] was tested, and the “excited fluorescence at 600 to 900 nm relative to NADH peak at 470 nm (=1): Cancer” value [1] was 0.82, the “excited fluorescence at 600 to 900 nm relative to NADH peak at 470 nm (=1): Kidney” value [1] was 0.07 and the “excited fluorescence at 600 to 900 nm relative to NADH peak at 470 nm (=1): Liver” value [1] was 0.31. The “excited fluorescence at 600 to 900 nm relative to NADH peak at 470 nm (=1): Lung” value [1] was 0.20 and the “excited fluorescence at 600 to 900 nm relative to NADH peak at 470 nm (=1): Serum” value [1] was 1.58.
